According to patent publication US20230131899A1, “INHIBITORS OF MICROBIALLY INDUCED AMYLOID” (Axial Therapeutics, Inc., priority 2020, published 2023):
Where two headings read alike, the source gives them in different places.

Assays:
[1] = tested on: CsgA gene expression (csgBAC promoter-GFP reporter) in E. coli UTI89; test: In vitro live cell fluorescent reporter assay of CsgA transcription (Reporter Assay); format: cell-based; details: Escherichia coli
Summary of the method: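 Chromosomal single-copy csgBAC promoter–GFP reporter in E. coli UTI89, started at OD600 0.003 in YESCA broth with compound (0.14–100 μM, 1% DMSO), 20 h at 27 °C. GFP (ex 485/em 525 nm) background-subtracted and normalized to vehicle; IC50 and X[50] from curve fits. OD600 tracked growth effects.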

human α-synuclein = target: T1, human α-synuclein (Homo sapiens, UniProt P37840); test: Cell-free Thioflavin T assay of α-synuclein aggregation (αSyn ThT Assay); format: biochemical; details: αSyn 50 μM
T1 construct: the full-length gene for untagged human α-synuclein was inserted; made in house; host or cells: E. coli BL21(DE3), plasmid derived from pT7 or pET11a
Method: To assess the effects of compounds on aggregation of α-synuclein, a cell-free assay was performed using purified α-synuclein and Thioflavin T. In the assay, human α-synuclein was expressed in E. coli BL21(DE3) from a plasmid derived from pT7 or pET11a into which the full-length gene for untagged human α-synuclein was inserted. Cells were induced at OD600 0.6 with 0.8 mM IPTG for 4 hours, harvested by centrifugation and suspended in a volume of lysis buffer (10 mM Tris, pH 8.0, 1 mM EDTA, and 1 mM PMSF) equivalent to one-tenth the volume of culture and lysed by boiling for 20 minutes. Cell debris was pelleted by centrifugation, clarified lysate was treated with 10% streptomycin sulfate at 136 μL/mL followed by glacial acetic acid at 228 μL/mL, lysate was centrifuged, supernatant was transferred to a fresh tube and protein was precipitated via addition of an equal volume of saturated (100%) ammonium sulfate and incubated at 4° C. on a rocking shaker for 1 hour. The protein was pelleted via centrifugation and washed with an equal volume of 100 mM ammonium acetate in chilled ethanol, pelleted via centrifugation, washed twice with chilled ethanol, dried overnight, resuspended in 50 mM potassium phosphate buffer pH 7.3 or 10 mM Tris pH 7.4, and passed through a 50 kDa cut-off column. Immediately prior to use, the purified α-synuclein was filtered with a 0.2 μm nylon filter. The assay was conducted in 96-well black microplates with a single 1-2 mm glass bead in each well, 20-40 μM ThioflavinT, 1% DMSO, α-synuclein at 50 μM and compounds at 20-100 μM. Plates were sealed with sealing tape (ThermoFisher 232701), incubated at 37° C. in a Tecan Nano F200 plate reader with excitation at 438 nm using a 439 nm filter with a bandwidth of 8 nm, and emission at 495 nm with a 490 nm filter with a bandwidth of 10 nm. During the assay, plates were shaken continuously or were shaken for 999 seconds every 18 minutes. Readings were performed hourly for up to 73 hours. The effect of compounds on α-synuclein aggregation in the assay was determined with data at 36, 47, 48 or 72 hours or from the final timepoint of the assay, prior to or roughly near the time when ThT fluorescence plateaued in the vehicle control wells. The vehicle controls contained all components of the assay except compounds and represented the level of α-synuclein aggregation in the absence of an inhibitor or accelerator. Fluorescence values for each compound with α-synuclein were first adjusted by subtracting the average fluorescence of the compound in the absence of α-synuclein. These adjusted values were normalized by dividing them by the average fluorescence at the same timepoint in the vehicle control wells, and the average normalized fluorescence with the compound was expressed as a percentage of the average fluorescence observed in untreated controls. Percent inhibition of α-synuclein aggregation by a compound was determined by subtracting the percent average fluorescence with the compound relative to the average vehicle control from 100%. A higher positive percent inhibition reflects greater inhibition of α-synuclein aggregation, while a negative percent inhibition reflects potentiation of α-synuclein aggregation.
Alternate concentrations of Thioflavin T may be used in the assay and may affect the fluorescent signal and sensitivity of the assay. Alternate concentrations of α-synuclein may be used and such alterations may affect aggregation kinetics of α-synuclein in the assay. Alternate concentrations of compounds may be tested in the assay, and dose-responses may be evaluated. Additional reagents may be added to the assay which may affect aggregation kinetics of α-synuclein depending on their concentration, including detergents such as sodium dodecyl sulfate, sodium chloride, dithiotreitol, or bovine serum albumin. Shaking may be included at alternate intervals in the assay and may affect α-synuclein aggregation kinetics. […]

E. coli CsgA = target: T2, E. coli CsgA (Escherichia coli, UniProt P28307); test: In vitro ThioflavinT assay of CsgA aggregation (CsgA ThT Assay); format: biochemical; details: for remaining activity at 25 µM: compound 25 μM; for remaining activity at 100 µM: compound 100 μM
T2 construct: made in house; host or cells: E. coli NEB 3016 slyD::kan, pET11d
Summary of the method: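 Purified C-terminal His-tagged CsgA, monomerised by desalting and 30-kDa filtration, at 2-20 μM with 20-40 μM ThT in 50 mM potassium phosphate pH 7.3, 1% DMSO, compounds 3.125-200 uM; room temperature, fluorescence (ex 438/em 495 nm) read every 15 min. Background-subtracted signal expressed as percent inhibition versus vehicle at 6-6.5 or 8-9 h, or as percent control AUC.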

[2] = read-out: Reporter Assay Abs IC50 (μM), median Abs IC50 in the CsgA reporter assay, N/A = maximum expression reduction is <50% of control
[3] = mean % inhibition of αSyn aggregation relative to DMSO control, compounds at 100 μM, read-out: αSyn ThT Assay % Inhibition
[4] = read-out: Reporter Assay Abs IC50, activity range, class symbol
[5] = class symbol, compounds 100 μM, read-out: αSyn ThT Assay % inhibition, activity range
[6] = mean percent inhibition relative to DMSO control, compounds 100 μM, read-out: αSyn ThT Assay % inhibition
[7] = read-out: CsgA ThT Assay (2 μM CsgA) % Control Bmax 25 μM, activity range, class symbol, CsgA 2 μM, white plates
[8] = read-out: CsgA ThT Assay (2 μM CsgA) % Control Bmax 25 μM, mean Bmax as percentage of DMSO control, CsgA 2 μM, white plates
[9] = read-out: CsgA ThT Assay (2 μM CsgA) % Control Bmax 100 μM, activity range, class symbol, CsgA 2 μM, white plates
[10] = read-out: CsgA ThT Assay (2 μM CsgA) % Control Bmax 100 μM, mean Bmax as percentage of DMSO control, CsgA 2 μM, white plates

T2 sequence (P28307 23-151): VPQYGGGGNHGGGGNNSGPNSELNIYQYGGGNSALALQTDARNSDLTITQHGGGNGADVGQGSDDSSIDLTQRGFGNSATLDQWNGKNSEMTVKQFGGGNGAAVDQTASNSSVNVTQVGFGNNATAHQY

## O=C(O)C1CN(CCCCCCN2CC(C(=O)O)n3c(c(-c4cccc(C(F)(F)F)c4)c(Cc4cccc5ccccc45)cc3=O)S2(=O)=O)S(=O)(=O)c2c(-c3cccc(C(F)(F)F)c3)c(Cc3cccc4ccccc34)cc(=O)n21 (racemic) [Compound 043, 2,2′-(hexane-1,6-diyl)bis(8-(naphthalen-1-ylmethyl)-6-oxo-9-(3-(trifluoromethyl)phenyl)-3,4-dihydro-2H,6H-pyrido[1,2-e][1,2,5]thiadiazine-4-carboxylic acid 1,1-dioxide)]
[1]; read-out: Reporter Assay Abs IC50 (activity range), median Abs IC50 in the CsgA reporter assay, class symbol
  IC50: < 1.3 µM
[1]; [2]
  IC50: 0.7 µM
Human α-synuclein; [3]
  inhibition at 100 µM: 72%
Human α-synuclein; compounds at 100 μM, class symbol, read-out: αSyn ThT Assay % Inhibition (activity range)
  inhibition at 100 µM: > 60%

## N#Cc1ccccc1CN1CC(C(=O)O)n2c1c(-c1cccc(C(F)(F)F)c1)c(Cc1cccc3ccccc13)c(Cl)c2=O (stereo not drawn) [Compound 165, 6-chloro-1-(2-cyanobenzyl)-7-(naphthalen-1-ylmethyl)-5-oxo-8-(3-(trifluoromethyl)phenyl)-1,2,3,5-tetrahydroimidazo[1,2-a]pyridine-3-carboxylic acid]
[1]; [2]
  IC50: 0.8 µM
[1]; [4]
  IC50: < 1.3 µM
Human α-synuclein; [5]
  inhibition at 100 µM: 11 to 30%
Human α-synuclein; [6]
  inhibition at 100 µM: 30%

## COc1cc(Cc2c(-c3cccc(C(F)(F)F)c3)c3n(c(=O)c2Cl)C(C(=O)O)CN3Cc2ccccc2)c2ccccc2c1 (stereo not drawn) [Compound 234, 1-benzyl-6-chloro-7-((3-methoxynaphthalen-1-yl)methyl)-5-oxo-8-(3-(trifluoromethyl)phenyl)-1,2,3,5-tetrahydroimidazo[1,2-a]pyridine-3-carboxylic acid]
[1]; [2]
  IC50: 0.4 µM
[1]; [4]
  IC50: < 1.3 µM
Human α-synuclein; [5]
  inhibition at 100 µM: > 60%
Human α-synuclein; [6]
  inhibition at 100 µM: 70%

## O=C(O)C1CN(Cc2ccccc2)c2c(-c3cccc(C(F)(F)F)c3)c(Cc3ccc(Cl)c4ccccc34)cc(=O)n21 (stereo not drawn) [Compound 232, 1-benzyl-7-((4-chloronaphthalen-1-yl)methyl)-5-oxo-8-(3-(trifluoromethyl)phenyl)-1,2,3,5-tetrahydroimidazo[1,2-a] pyridine-3-carboxylic acid]
[1]; [2]
  IC50: 0.7 µM
[1]; [4]
  IC50: < 1.3 µM
Human α-synuclein; [5]
  inhibition at 100 µM: 11 to 30%
Human α-synuclein; [6]
  inhibition at 100 µM: 23%

## N#Cc1ccc(CN2CC(C(=O)O)n3c2c(-c2cccc(C(F)(F)F)c2)c(Cc2cccc4ccccc24)c(Cl)c3=O)cc1 (stereo not drawn) [Compound 171, 6-chloro-1-(4-cyanobenzyl)-7-(naphthalen-1-ylmethyl)-5-oxo-8-(3-(trifluoromethyl)phenyl)-1,2,3,5-tetrahydroimidazo[1,2-a]pyridine-3-carboxylic acid]
[1]; [2]
  IC50: 1.1 µM
[1]; [4]
  IC50: < 1.3 µM
Human α-synuclein; [5]
  inhibition at 100 µM: 31 to 60%
Human α-synuclein; [6]
  inhibition at 100 µM: 32%

## CN1CC(C(=O)O)n2c(c(-c3cccc(C(F)(F)F)c3)c(Cc3cccc4ccccc34)cc2=O)S1(=O)=O (single isomer, unassigned) [Compound 008a, 2-methyl-8-(naphthalen-1-ylmethyl)-6-oxo-9-(3-(trifluoromethyl)phenyl)-3,4-dihydro-2H,6H-pyrido[1,2-e][1,2,5]thiadiazine-4-carboxylic acid 1,1-dioxide]
E. coli CsgA; read-out: CsgA ThT Assay (10 μM CsgA) % Control AUC at 1005 minutes, 25 μM (activity range), CsgA 10 μM, black plates, 1005 minutes, class symbol
  remaining activity at 25 µM: > 60%
E. coli CsgA; read-out: CsgA ThT Assay (10 μM CsgA) % Control AUC at 1005 minutes, 25 μM, mean AUC as % of DMSO control, CsgA 10 μM, black plates, 1005 minutes
  remaining activity at 25 µM: 71%
E. coli CsgA; read-out: CsgA ThT Assay (10 μM CsgA) % Control AUC at 1005 minutes, 100 μM (activity range), CsgA 10 μM, black plates, 1005 minutes, class symbol
  remaining activity at 100 µM: 31 to 60%
E. coli CsgA; read-out: CsgA ThT Assay (10 μM CsgA) % Control AUC at 1005 minutes, 100 μM, mean AUC as % of DMSO control, CsgA 10 μM, black plates, 1005 minutes
  remaining activity at 100 µM: 38%
Human α-synuclein; [3]
  inhibition at 100 µM: 16%
Human α-synuclein; compounds at 100 μM, class symbol
  αSyn ThT Assay % Inhibition (activity range): (+) ((+) represents 11 to 30)

## CC(C)NC(=O)c1c(Cc2cccc3ccccc23)c(-c2cccc(C(F)(F)F)c2)c2n(c1=O)C(C(=O)O)CN(C)S2(=O)=O (stereo not drawn) [Compound 157, 7-(isopropylcarbamoyl)-2-methyl-8-(naphthalen-1-ylmethyl)-6-oxo-9-(3-(trifluoromethyl)phenyl)-3,4-dihydro-2H,6H-pyrido[1,2-e][1,2,5]thiadiazine-4-carboxylic acid 1,1-dioxide]
E. coli CsgA; [7]
  remaining activity at 25 µM: > 60%
E. coli CsgA; [8]
  remaining activity at 25 µM: 81%
E. coli CsgA; [9]
  remaining activity at 100 µM: > 60%
E. coli CsgA; [10]
  remaining activity at 100 µM: 124%
Human α-synuclein; [5]
  inhibition at 100 µM: > 60%
Human α-synuclein; [6]
  inhibition at 100 µM: 83%

## O=C(O)C1CNS(=O)(=O)c2c(-c3cccc(C(F)(F)F)c3)c(Cc3cccc4ccccc34)c(NC3CCCC3)c(=O)n21 (stereo not drawn) [Compound 005, 7-(cyclopentylamino)-8-(naphthalen-1-ylmethyl)-6-oxo-9-(3-(trifluoromethyl)phenyl)-3,4-dihydro-2H,6H-pyrido[1,2-e][1,2,5]thiadiazine-4-carboxylic acid 1,1-dioxide]
E. coli CsgA; [7]
  remaining activity at 25 µM: > 60%
E. coli CsgA; [8]
  remaining activity at 25 µM: 66%
E. coli CsgA; [9]
  remaining activity at 100 µM: 11 to 31%
E. coli CsgA; [10]
  remaining activity at 100 µM: 20%
Human α-synuclein; [5]
  inhibition at 100 µM: 31 to 60%
Human α-synuclein; [6]
  inhibition at 100 µM: 48%

## CCCN1CC(C(=O)O)n2c(c(-c3cccc(C(F)(F)F)c3)c(Cc3cccc4ccccc34)c(OC3CCCC3)c2=O)S1(=O)=O (stereo not drawn) [Compound 144, 7-(cyclopentyloxy)-8-(naphthalen-1-ylmethyl)-6-oxo-2-propyl-9-(3-(trifluoromethyl)phenyl)-3,4-dihydro-2H,6H-pyrido[1,2-e][1,2,5]thiadiazine-4-carboxylic acid 1,1-dioxide]
E. coli CsgA; [7]
  remaining activity at 25 µM: > 60%
E. coli CsgA; [8]
  remaining activity at 25 µM: 77%
Human α-synuclein; [5]
  inhibition at 100 µM: 11 to 30%
Human α-synuclein; [6]
  inhibition at 100 µM: 29%
